Results as given in ChEMBL document CHEMBL1201862, “PubChem BioAssay data set” (2004).
Active and inactive are the calls of the source.

Legend:
[1] = NIH-3T3 fibroblast cytotoxicity, dose response, cytotoxicity control, cell-based, fluorescence, Alamar Blue, secondary assay (AID 2327); assay type: functional;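 further: NIH-3T3 mouse fibroblasts cultured with fluconazole at 8 µg/mL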
[2] = C. albicans growth with fluconazole, confirmation, fluorescence, retest (AID 2467); assay type: functional, cell-based
[3] = THP-1 cell cytotoxicity, dose response, cytotoxicity control for non-replicating M. tuberculosis project (AID 489025); assay type: functional
[4] = HepG2 cell cytotoxicity, dose response, cytotoxicity control for non-replicating M. tuberculosis project (AID 489018); assay type: functional; details: Mycobacterium tuberculosis
[5] = Vero E6 cell cytotoxicity, dose response, cytotoxicity control for non-replicating M. tuberculosis project, secondary assay (AID 492998); assay type: functional, VeroE6; details: Vero C1008
cells = assay type: functional
Albumin = Albumin (Bos taurus, UniProt P02769); assay: Counterscreen for inhibitors of T-cell receptor (TCR)-CD3 interaction: Fluorescence-based biochemical high throughput dose response assay to identify inhibitors of T-cell receptor (TCR)-CD3 interaction using a TAMRA-labeled BSA probe.; assay type: functional
Chain of Albumin (P02769 whole entry): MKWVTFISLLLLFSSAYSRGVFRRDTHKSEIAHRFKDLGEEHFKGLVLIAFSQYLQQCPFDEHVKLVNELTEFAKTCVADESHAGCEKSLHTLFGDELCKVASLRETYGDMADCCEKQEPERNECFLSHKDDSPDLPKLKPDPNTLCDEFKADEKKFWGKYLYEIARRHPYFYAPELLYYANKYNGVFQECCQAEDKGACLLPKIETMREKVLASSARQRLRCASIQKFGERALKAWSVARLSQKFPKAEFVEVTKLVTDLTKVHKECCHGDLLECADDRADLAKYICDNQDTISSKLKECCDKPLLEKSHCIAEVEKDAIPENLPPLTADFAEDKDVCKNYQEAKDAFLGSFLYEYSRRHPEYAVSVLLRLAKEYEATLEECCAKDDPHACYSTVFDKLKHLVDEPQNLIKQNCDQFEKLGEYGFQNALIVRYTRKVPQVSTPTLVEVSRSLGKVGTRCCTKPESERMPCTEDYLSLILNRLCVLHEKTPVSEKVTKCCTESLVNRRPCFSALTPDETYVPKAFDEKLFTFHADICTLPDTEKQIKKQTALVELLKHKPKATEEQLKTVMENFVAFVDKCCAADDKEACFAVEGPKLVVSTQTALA

[6] = target: Glucose-6-phosphate 1-dehydrogenase (Homo sapiens, UniProt P11413); assay: human G6PD enzyme inhibitors, dose response, selectivity assay for P. falciparum G6PD inhibitor project, biochemical, fluorescence (AID 504792); assay type: functional
Chain of Glucose-6-phosphate 1-dehydrogenase (P11413 whole entry): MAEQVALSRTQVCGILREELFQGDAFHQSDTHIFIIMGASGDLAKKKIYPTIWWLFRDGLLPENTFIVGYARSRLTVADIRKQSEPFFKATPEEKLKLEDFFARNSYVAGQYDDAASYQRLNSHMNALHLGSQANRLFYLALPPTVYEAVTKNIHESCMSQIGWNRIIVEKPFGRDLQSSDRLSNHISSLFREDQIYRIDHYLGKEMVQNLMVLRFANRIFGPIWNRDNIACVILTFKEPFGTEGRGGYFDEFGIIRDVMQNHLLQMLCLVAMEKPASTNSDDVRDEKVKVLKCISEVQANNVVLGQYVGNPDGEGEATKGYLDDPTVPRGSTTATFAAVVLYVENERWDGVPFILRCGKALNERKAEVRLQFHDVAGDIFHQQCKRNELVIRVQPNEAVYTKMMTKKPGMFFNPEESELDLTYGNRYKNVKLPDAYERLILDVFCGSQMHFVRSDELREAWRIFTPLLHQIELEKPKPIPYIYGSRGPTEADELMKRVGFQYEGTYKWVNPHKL

Beta-galactosidase = Beta-galactosidase (Escherichia coli, UniProt Q8VNN2); assay: beta-galactosidase enzyme inhibitors and activators, dose response, artefact control for CCR6 antagonist project, biochemical, E. coli enzyme, set 3 (AID 504712); assay type: functional
Chain of Beta-galactosidase (Q8VNN2 whole entry, the tested form may be a part): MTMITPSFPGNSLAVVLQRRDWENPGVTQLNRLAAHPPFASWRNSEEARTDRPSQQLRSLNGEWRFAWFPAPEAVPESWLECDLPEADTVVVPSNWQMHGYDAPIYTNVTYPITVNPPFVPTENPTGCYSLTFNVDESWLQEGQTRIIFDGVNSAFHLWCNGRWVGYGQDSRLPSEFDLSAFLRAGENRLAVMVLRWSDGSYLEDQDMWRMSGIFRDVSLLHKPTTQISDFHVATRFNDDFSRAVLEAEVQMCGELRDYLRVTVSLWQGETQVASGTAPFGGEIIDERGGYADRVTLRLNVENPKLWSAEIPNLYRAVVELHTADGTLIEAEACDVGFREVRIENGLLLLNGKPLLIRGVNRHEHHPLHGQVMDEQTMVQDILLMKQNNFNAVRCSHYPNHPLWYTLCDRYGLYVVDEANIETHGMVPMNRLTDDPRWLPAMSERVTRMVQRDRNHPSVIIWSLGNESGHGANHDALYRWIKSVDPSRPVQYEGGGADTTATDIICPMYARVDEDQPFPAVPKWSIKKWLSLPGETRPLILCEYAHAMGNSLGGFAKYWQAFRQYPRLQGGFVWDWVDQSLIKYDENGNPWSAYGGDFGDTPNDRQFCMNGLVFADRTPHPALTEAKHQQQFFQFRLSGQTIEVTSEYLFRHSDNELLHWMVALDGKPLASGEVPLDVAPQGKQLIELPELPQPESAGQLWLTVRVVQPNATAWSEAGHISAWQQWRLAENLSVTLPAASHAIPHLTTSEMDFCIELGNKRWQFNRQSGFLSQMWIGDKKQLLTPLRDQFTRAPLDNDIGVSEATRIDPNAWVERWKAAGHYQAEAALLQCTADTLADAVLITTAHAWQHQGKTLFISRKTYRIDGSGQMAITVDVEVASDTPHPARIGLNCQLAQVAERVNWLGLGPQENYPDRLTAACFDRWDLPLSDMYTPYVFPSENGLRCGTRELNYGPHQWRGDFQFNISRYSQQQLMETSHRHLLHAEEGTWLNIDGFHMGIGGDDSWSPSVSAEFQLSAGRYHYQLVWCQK

CHO = assay: cytotoxicity in TLR9-MyD88 CHO cells, dose response, cytotoxicity control for TLR9-MyD88 binding inhibitor project, cell-based, luminescence (AID 588339); assay type: functional, hamster; details: Cricetulus griseus;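 further: CHO cells stably coexpressing TLR9 and MyD88 fusions from primary screen; compound exposure lasted 48 hours before viability readout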
[7] = target: Heat shock protein HSP 90-alpha (Homo sapiens, UniProt P07900); assay type: functional, organism-based
Vero = Vero cell cytotoxicity, cytotoxicity control for flavivirus capping enzyme inhibitors (AID 588742); assay type: functional; details: Chlorocebus sabaeus
Beta Lactamase [8] = target: T1, Beta Lactamase (Pseudomonas aeruginosa, UniProt Q932Y6); assay: beta-lactamase reporter inhibitor potency, dose response, artefact control for TLR9-MyD88 binding inhibitor project, BLA reporter cells, FRET fluorescence (AID 588341); assay type: cell-based;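 further: cell based assay in CHO-K1 cells stably expressing beta-lactamase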
T1 sequence (Q932Y6 whole entry): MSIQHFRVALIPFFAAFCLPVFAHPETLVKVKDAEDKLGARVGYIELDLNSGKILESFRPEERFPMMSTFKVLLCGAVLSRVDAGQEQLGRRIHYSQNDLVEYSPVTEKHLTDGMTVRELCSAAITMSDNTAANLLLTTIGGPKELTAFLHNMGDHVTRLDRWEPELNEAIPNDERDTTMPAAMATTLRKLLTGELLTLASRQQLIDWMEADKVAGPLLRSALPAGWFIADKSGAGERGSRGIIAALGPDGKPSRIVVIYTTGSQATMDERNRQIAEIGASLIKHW

Genome polyprotein = Genome polyprotein (dengue virus type 2, UniProt P29990); assay: Dengue-2 NS5 methyltransferase inhibitors, primary screen, biochemical, confirmation dose response (AID 588689); assay type: functional
Chain of Genome polyprotein (P29990 2492-3391 limits assumed): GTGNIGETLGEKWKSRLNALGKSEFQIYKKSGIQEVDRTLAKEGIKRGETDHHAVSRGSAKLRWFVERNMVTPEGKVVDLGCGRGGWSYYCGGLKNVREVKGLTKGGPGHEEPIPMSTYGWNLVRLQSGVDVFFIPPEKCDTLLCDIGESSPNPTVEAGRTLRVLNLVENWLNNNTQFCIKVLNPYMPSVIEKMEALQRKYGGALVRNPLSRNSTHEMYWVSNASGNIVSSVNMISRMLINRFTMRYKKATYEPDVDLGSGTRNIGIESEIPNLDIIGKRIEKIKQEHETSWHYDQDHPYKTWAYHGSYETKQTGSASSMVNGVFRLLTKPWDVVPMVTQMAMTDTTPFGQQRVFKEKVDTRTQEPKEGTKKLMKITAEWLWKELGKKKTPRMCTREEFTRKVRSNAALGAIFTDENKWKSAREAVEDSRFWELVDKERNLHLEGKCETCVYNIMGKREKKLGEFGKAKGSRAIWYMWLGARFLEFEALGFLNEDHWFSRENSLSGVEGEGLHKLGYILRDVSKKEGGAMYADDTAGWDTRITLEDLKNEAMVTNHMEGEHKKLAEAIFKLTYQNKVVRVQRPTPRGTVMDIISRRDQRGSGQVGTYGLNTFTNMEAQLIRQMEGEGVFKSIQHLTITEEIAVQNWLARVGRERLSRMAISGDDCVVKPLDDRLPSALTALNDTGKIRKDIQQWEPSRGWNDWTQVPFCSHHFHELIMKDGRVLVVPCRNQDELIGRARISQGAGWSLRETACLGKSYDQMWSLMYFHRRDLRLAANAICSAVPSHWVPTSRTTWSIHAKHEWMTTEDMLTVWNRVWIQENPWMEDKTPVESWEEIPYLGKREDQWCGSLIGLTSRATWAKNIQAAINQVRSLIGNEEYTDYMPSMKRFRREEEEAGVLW

[9] = Fluorescence-based cell-based high throughput dose response assay for inhibitors of the interaction of nucleotide-binding oligomerization domain containing 2 (NOD2) and the receptor-interacting serine-threonine kinase 2 (RIPK2).; assay type: functional; details: Homo sapiens
Beta Lactamase [10] = target: T1, Beta Lactamase; assay: beta-lactamase reporter inhibitor potency, dose response, artefact control for NOD2-RIPK2 interaction inhibitor project, BLA reporter cells, FRET fluorescence (AID 651552); assay type: functional, cell-based
Paired box protein Pax-8 = Paired box protein Pax-8 (Homo sapiens, UniProt Q06710); assay: inhibitors of PAX8-driven TPO luciferase reporter, dose response, RMG-I cells, cherry-pick (AID 687027); assay type: functional, cell-based;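 further: luciferase reporter driven by Pax8 target thyroperoxidase promoter measured by SteadyGlo luminescence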
Chain of Paired box protein Pax-8 (Q06710 whole entry): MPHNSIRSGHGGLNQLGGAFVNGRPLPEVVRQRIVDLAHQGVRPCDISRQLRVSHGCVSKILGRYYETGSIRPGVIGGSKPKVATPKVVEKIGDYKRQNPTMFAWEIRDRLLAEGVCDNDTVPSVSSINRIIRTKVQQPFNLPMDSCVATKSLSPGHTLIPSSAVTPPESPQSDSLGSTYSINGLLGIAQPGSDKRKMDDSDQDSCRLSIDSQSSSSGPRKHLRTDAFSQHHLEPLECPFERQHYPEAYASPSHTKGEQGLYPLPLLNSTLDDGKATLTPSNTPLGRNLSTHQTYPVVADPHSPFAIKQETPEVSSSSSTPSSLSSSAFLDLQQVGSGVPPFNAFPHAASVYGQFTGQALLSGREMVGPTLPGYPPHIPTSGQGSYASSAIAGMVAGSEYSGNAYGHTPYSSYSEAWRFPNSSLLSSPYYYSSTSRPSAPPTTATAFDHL

[11] = non-specific cell cytotoxicity, dose response, cytotoxicity control for PAX8 inhibitor project, plate reader, dry powder samples (AID 743021); assay type: functional, cell-based
Protein Tat = target: T2, Protein Tat (Human immunodeficiency virus type 1 group M subtype B (isolate HXB2)(HIV-1), UniProt P04608); assay type: functional;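 further: tat binding to TAR RNA read out by fluorescence polarization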
T2 sequence (P04608 whole entry): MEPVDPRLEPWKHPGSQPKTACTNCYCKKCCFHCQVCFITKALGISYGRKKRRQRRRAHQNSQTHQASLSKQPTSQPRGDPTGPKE

[12] = THP-1 cell cytotoxicity, dose response, cytotoxicity control for Vif-APOBEC3G degradation inhibitor project, THP-1 cells (AID 1117359); assay type: functional; details: Human immunodeficiency virus 1, THP-1
[13] = HeLa cell cytotoxicity, dose response, cytotoxicity control, 24 h, plate reader, dry powder (AID 686928); assay type: functional, cell-based
[14] = tested on: Streptococcus sp. 'group A'; assay: growth inhibition of control SK(-) GAS strain, dose response, counter-screen for streptokinase expression inhibitor project, luminescence, kanamycin, BacTiterGlo, confirmation (AID 1900); assay type: functional, organism-based
Streptokinase A = target: T3, Streptokinase A (Streptococcus pyogenes serotype M1, UniProt P10520); assay: S. pyogenes streptokinase expression inhibitors, potency, dose response, plasminogen activation absorbance, OD405 (AID 1914); assay type: functional, Streptococcus pyogenes M1 GAS;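 further: secreted streptokinase activity via plasminogen activation per viability signal from cell pellet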
T3 sequence (P10520 whole entry): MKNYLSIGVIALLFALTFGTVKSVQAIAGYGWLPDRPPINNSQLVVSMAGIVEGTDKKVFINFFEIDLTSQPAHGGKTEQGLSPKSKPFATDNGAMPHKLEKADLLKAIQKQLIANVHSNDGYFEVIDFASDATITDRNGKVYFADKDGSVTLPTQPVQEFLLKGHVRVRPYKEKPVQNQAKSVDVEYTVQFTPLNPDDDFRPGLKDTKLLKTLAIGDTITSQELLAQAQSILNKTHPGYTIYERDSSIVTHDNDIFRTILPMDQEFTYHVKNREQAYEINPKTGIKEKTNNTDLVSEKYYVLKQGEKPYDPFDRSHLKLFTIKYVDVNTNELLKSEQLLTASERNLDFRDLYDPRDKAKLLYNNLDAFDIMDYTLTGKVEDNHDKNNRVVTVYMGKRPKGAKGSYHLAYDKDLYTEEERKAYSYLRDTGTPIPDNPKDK

[15] = inhibitors of intracellular T. cruzi replication, confirmation, NIH3T3 host cells, beta-gal luminescence (AID 2044); assay type: functional, cell-based;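 further: intracellular parasites grown in NIH/3T3 mouse fibroblasts as host cells; luminescent beta-galactosidase reporter signal from transgenic T. cruzi replicating inside host cells; inhibitors lower the luminescence signal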
[16] = cytotoxicity toward NIH3T3 fibroblasts, dose response, counter-screen, cell-based, ATP luminescence, mouse fibroblasts (AID 2010); assay type: functional;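 further: cells exposed to compound for about 90 hours before reading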
Streptococcus = assay: Group A Streptococcus viability loss, dose response, counter-screen for streptokinase expression inhibitor project, luminescence, BacTiterGlo (AID 1915); assay type: functional, organism-based;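 further: potency for reduction of bacterial viability or growth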
INS1 = assay: beta cell apoptosis inhibitors, cytokine rescue, dose response, luminescence, retest (AID 449756); assay type: functional, cell-based; details: Rattus norvegicus;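 further: cell death triggered by IL-1 beta plus TNF-alpha plus IFN-gamma mixture; protective hits raise ATP signal compared with cytokine alone wells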

For COc1ccc(C(=O)NNC(=S)NC(=O)c2cccc([N+](=O)[O-])c2)cc1, the EC50 [1] was > 160 µM (inactive), the EC50 [2] was 2.63 µM (active) and the CC50 [3] was 19.3 µM (active). The CC50 [4] was > 20 µM (active), the CC50 [5] was 17.9 µM (active) and the IC50 (cells) was 18.9 µM (active). The IC50 (Albumin) was > 94.1 µM (inactive).

For CC1=C(O)C(=O)C=C2C1=CC=C1C2(C)CCC2(C)C3CC(C)(C(=O)O)CCC3(C)CCC12C (centres undefined), the IC50 [6] was > 80 µM (inactive), the IC50 (Beta-galactosidase) was > 66.6 µM (inactive) and the IC50 (CHO) was 0.619 µM (active). For the same compound, the AC50 [7] was 1.41 µM (active), the CC50 (Vero) was 1.43 µM (active) and the IC50 (Beta Lactamase [8]) was 21.4 µM (inactive). The IC50 (Genome polyprotein) was 19.7 µM (active), the IC50 [9] was 0.205 µM (active) and the IC50 (Beta Lactamase [10]) was 38.1 µM (inactive). The AC50 (Paired box protein Pax-8) was 2.41 µM (active), the AC50 [11] was 26.1 µM (active) and the IC50 (Protein Tat) was > 100 µM (active). The CC50 [12] was 1.01 µM (active).

For Cc1cc2cc3c(NC(=O)c4ccco4)nn(C)c3nc2cc1C, the AC50 [13] was 147 µM (active).

In the case of O=C1C(=O)N(Cc2cccc(Cl)c2)c2ccccc21, the AC50 [13] is reported as 124 µM (active).

With C/C(=N\NC(=O)c1nnn(-c2nonc2N)c1CN(C)c1ccccc1)c1ccccc1O the EC50 [14] was 5.37 µM (active), the EC50 (Streptokinase A) was > 150 µM (not active) and the EC50 [15] was 0.403 µM (active). For the same compound, the EC50 [16] was 5.57 µM (active), the EC50 (Streptococcus) was 5.74 µM (active) and the AC50 (INS1) was 2.15 µM (active). For the same compound, the IC50 (Albumin) was > 94.1 µM (inactive).
